Source: ChEMBL document CHEMBL1201862, “PubChem BioAssay data set” (2004)
Active and inactive are the calls of the source.

What was measured:
[1] = target: DNA dC->dU-editing enzyme APOBEC-3A (Homo sapiens, UniProt P31941); assay: Dose Response confirmation of small molecule APOBEC3A DNA Deaminase Inhibitors via a fluorescence-based single-stranded DNA deaminase assay. [Related pubchem assays (depositor defined):AID493011, AID493024]; type: functional
[2] = target: DNA dC->dU-editing enzyme APOBEC-3G (Homo sapiens, UniProt Q9HC16); type: functional;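 note: Dose-response counterscreen measuring inhibition of APOBEC3G DNA deaminase activity, run while confirming APOBEC3A inhibitors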
SUMO-activating enzyme = SUMO-activating enzyme (Homo sapiens, UniProt Q9UBT2); assay: SUMOylation inhibitor hit validation, confirmation, SUMOylation inhibitor project, biochemical, AlphaScreen (AID 2018); type: functional
[3] = target: Dual specificity tyrosine-phosphorylation-regulated kinase 1A (Rattus norvegicus, UniProt Q63470); type: biochemical, Homo sapiens
Caspase-3 = target: T1, Caspase-3 (Homo sapiens, UniProt P42574); type: functional;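 note: Dose-response selectivity test against caspase-3 for candidate inhibitors of sentrin-specific proteases (SENPs)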
T1 sequence (P42574 whole entry): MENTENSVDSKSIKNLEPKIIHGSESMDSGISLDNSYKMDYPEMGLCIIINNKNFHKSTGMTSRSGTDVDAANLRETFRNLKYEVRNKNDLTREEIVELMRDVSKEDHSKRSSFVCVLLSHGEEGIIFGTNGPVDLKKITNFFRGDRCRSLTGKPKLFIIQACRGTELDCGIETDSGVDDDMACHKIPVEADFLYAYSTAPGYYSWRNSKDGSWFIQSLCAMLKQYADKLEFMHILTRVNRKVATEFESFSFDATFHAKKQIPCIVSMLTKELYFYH

[4] = target: T2, Sentrin-specific protease 7 (Homo sapiens, UniProt Q9BQF6); type: functional;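 note: Luminescence-based dose-response confirmation of ultra-high-throughput screening hits, measuring inhibition of SENP7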
T2 sequence (Q9BQF6 whole entry): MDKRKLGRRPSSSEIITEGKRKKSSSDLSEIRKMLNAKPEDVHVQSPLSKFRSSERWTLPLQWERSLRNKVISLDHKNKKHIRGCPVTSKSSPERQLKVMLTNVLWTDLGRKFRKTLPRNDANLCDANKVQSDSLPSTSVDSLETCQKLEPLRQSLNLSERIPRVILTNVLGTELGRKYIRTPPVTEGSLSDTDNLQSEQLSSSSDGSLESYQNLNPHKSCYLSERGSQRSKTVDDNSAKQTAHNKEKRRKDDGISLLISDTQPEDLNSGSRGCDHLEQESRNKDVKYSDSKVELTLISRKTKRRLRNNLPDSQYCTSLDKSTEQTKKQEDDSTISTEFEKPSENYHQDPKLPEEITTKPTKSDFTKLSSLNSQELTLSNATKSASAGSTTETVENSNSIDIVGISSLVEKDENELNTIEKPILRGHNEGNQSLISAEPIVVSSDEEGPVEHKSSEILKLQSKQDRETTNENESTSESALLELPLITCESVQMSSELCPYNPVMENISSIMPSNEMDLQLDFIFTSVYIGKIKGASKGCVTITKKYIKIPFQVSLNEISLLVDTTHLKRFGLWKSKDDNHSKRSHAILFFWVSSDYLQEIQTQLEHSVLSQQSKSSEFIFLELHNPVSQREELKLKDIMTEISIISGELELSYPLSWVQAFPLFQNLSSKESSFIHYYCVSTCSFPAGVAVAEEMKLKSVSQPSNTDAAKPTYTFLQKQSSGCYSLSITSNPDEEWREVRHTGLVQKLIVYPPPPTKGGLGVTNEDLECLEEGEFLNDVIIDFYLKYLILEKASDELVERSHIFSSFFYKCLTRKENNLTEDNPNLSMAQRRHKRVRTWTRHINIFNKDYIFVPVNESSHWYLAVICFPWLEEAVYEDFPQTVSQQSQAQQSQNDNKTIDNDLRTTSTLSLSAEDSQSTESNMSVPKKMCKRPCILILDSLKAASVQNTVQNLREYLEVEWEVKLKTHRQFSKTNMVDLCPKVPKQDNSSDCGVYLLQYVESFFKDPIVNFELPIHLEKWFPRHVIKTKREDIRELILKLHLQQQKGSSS

[5] = target: T3, Sentrin-specific protease 6 (Homo sapiens, UniProt Q9GZR1); type: functional;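 note: Luminescence-based dose-response confirmatory assay of SENP6 inhibition, following up an ultra-high-throughput screen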
T3 sequence (Q9GZR1 whole entry): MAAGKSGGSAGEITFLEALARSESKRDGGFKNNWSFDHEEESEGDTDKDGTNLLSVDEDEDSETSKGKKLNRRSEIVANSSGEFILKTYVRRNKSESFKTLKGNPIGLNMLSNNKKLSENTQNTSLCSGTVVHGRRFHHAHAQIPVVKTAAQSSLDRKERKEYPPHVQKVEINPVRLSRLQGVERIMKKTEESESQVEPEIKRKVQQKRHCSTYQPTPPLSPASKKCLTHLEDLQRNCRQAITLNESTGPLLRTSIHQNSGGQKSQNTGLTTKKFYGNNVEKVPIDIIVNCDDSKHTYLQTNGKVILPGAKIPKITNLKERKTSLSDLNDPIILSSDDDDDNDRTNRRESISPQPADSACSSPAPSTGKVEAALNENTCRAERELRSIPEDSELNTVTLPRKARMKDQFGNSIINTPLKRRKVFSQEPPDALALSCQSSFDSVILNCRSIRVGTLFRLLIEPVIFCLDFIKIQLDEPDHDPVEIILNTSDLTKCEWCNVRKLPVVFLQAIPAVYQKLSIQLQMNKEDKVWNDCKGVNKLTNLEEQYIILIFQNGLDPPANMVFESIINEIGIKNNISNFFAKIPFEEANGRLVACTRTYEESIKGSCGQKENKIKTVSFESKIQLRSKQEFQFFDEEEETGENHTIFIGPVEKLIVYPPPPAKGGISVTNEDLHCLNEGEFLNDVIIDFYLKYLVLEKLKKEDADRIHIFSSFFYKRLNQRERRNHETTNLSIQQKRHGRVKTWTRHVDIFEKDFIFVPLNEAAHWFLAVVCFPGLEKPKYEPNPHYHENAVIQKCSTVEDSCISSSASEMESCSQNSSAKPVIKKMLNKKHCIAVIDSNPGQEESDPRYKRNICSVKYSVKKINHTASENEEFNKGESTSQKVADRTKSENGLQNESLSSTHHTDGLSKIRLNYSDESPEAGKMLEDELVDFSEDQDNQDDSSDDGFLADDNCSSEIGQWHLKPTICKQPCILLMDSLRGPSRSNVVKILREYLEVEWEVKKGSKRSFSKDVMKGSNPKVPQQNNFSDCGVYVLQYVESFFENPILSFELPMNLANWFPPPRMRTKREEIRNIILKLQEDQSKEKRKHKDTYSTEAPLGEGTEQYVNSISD

[6] = target: T4, Sentrin-specific protease 8 (Homo sapiens, UniProt Q96LD8); type: functional;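 note: luminescence read-out of SENP8 inhibition, dose-response confirmation following an ultra-high-throughput screen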
T4 sequence (Q96LD8 whole entry): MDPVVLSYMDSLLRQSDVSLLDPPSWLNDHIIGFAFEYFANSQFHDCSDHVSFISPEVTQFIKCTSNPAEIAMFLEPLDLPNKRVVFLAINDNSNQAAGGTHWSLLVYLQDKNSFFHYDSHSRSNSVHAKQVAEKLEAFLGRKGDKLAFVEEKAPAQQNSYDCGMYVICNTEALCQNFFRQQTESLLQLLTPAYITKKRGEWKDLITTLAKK

Estrogen receptor = target: T5, Estrogen receptor (Homo sapiens, UniProt P03372);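 note: potency for inhibiting coactivator peptide recruitment to the receptor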
T5 sequence (P03372 whole entry): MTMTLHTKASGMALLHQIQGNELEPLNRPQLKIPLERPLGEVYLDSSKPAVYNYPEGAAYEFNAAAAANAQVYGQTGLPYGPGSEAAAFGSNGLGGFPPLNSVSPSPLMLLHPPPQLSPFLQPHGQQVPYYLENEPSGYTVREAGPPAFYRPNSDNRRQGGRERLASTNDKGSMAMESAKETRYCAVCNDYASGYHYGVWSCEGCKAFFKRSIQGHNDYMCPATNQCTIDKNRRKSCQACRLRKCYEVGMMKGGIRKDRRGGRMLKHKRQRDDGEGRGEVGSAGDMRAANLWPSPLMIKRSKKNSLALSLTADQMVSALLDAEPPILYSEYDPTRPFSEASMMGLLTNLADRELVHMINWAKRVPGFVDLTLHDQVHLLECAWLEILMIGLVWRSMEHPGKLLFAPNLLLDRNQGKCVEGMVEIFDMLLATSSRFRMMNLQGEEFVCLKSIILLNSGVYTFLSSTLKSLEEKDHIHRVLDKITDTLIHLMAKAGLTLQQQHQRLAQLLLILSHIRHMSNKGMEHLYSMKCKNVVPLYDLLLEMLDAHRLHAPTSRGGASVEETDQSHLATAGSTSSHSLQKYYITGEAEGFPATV

Vero [7] = assay: Vero cell cytotoxicity, cytotoxicity control for flavivirus capping enzyme inhibitors (AID 588742); type: functional; settings: Chlorocebus sabaeus
Genome polyprotein = Genome polyprotein (dengue virus type 2, UniProt P29990); assay: Dengue-2 NS5 methyltransferase inhibitors, primary screen, biochemical, confirmation dose response (AID 588689); type: functional
[8] = target: Ras and Rab interactor 1/Tyrosine-protein kinase ABL1 (Homo sapiens, UniProt P00519+Q13671); type: functional;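 note: biochemical TR-FRET dose-response test measuring inhibition of binding between Rin1 and Abl proteins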
[9] = THP-1 cell cytotoxicity, dose response, cytotoxicity control for non-replicating M. tuberculosis project (AID 489025); type: functional
[10] = HepG2 cell cytotoxicity, dose response, cytotoxicity control for non-replicating M. tuberculosis project (AID 489018); type: functional; settings: Mycobacterium tuberculosis
Nonstructural protein 1 = Nonstructural protein 1 (Influenza A virus, UniProt Q194T2); type: functional, Influenza A virus (A/California/07/2009(H1N1))
[11] = target: Heat shock protein HSP 90-alpha (Homo sapiens, UniProt P07900); type: functional, organism-based
Vero [12] = assay: cells; type: functional; settings: Chlorocebus sabaeus
Protein Tat = target: T6, Protein Tat (Human immunodeficiency virus type 1 group M subtype B (isolate HXB2)(HIV-1), UniProt P04608); type: functional;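 note: tat binding to TAR RNA read out by fluorescence polarization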
T6 sequence (P04608 whole entry): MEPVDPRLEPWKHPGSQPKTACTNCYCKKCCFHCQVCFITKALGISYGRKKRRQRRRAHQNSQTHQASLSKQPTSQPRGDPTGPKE

[13] = THP-1 cell cytotoxicity, dose response, cytotoxicity control for Vif-APOBEC3G degradation inhibitor project, THP-1 cells (AID 1117359); type: functional; settings: Human immunodeficiency virus 1, THP-1
[14] = target: T7, Rac GTPase-activating protein 1 (Homo sapiens, UniProt Q9H0H5); assay: MgcRacGAP GTPase-activating activity inhibitors, confirmation, biochemical, ADP Hunter fluorescence, primary and confirmatory (AID 624330); type: functional
T7 sequence (Q9H0H5 whole entry): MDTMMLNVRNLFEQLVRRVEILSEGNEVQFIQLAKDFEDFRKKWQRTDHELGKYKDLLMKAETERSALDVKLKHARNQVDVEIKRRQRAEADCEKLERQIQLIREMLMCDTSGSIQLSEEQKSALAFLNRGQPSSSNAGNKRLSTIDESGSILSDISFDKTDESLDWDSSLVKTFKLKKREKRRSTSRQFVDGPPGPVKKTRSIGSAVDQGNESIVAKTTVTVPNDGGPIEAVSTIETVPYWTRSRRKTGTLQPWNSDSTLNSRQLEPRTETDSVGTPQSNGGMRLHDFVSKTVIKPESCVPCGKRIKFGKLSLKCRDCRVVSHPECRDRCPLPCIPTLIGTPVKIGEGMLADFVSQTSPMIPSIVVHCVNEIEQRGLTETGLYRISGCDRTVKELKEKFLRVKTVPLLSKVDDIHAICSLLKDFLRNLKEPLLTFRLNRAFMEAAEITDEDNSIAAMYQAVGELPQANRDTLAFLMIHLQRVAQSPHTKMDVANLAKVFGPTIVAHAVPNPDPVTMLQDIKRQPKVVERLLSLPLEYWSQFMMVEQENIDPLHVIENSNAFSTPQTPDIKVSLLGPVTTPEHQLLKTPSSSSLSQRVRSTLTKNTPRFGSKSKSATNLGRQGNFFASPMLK

Sequence of DNA dC->dU-editing enzyme APOBEC-3G (Q9HC16 whole entry): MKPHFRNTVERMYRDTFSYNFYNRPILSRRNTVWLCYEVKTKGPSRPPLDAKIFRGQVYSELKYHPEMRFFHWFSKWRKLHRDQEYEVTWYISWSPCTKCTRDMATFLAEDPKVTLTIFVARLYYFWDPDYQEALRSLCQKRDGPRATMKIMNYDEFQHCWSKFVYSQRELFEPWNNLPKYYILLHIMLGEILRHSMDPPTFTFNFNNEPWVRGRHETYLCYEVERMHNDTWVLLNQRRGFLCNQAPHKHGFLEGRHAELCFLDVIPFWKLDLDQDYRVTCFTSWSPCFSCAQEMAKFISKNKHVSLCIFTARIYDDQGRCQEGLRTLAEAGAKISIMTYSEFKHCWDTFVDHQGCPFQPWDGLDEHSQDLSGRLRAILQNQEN
Sequence of DNA dC->dU-editing enzyme APOBEC-3A (P31941 whole entry): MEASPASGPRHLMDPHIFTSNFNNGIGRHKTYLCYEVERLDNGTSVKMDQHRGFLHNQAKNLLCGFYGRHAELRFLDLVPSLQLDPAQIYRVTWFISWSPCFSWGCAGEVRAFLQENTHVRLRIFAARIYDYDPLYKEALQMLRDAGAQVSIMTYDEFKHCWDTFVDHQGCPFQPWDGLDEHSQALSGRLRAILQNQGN
Sequence of Genome polyprotein (P29990 2492-3391 limits assumed): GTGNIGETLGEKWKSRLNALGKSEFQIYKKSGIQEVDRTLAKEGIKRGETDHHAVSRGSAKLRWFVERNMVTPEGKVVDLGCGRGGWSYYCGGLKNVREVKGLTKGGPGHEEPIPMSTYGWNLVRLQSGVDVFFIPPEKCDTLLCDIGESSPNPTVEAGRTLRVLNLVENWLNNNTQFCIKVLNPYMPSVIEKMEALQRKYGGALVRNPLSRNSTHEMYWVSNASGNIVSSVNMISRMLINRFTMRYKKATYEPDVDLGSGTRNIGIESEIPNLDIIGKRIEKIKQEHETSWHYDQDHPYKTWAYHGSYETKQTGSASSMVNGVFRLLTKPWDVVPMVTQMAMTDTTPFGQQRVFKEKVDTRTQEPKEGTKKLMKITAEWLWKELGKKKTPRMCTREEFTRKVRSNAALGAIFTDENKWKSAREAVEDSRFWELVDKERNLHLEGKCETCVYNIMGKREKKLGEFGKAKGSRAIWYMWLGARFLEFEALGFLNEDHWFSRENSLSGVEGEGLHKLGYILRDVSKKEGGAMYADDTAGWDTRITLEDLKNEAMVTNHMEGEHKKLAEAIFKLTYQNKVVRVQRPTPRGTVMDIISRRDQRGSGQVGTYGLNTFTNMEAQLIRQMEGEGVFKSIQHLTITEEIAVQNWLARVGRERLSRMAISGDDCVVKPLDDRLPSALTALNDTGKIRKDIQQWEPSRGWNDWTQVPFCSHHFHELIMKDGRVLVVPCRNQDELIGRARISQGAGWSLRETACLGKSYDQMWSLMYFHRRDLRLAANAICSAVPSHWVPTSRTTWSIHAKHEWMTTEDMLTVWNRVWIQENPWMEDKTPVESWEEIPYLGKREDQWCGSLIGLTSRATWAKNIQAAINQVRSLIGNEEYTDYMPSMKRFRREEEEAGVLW
Sequence of Ras and Rab interactor 1/Tyrosine-protein kinase ABL1 (P00519 whole entry): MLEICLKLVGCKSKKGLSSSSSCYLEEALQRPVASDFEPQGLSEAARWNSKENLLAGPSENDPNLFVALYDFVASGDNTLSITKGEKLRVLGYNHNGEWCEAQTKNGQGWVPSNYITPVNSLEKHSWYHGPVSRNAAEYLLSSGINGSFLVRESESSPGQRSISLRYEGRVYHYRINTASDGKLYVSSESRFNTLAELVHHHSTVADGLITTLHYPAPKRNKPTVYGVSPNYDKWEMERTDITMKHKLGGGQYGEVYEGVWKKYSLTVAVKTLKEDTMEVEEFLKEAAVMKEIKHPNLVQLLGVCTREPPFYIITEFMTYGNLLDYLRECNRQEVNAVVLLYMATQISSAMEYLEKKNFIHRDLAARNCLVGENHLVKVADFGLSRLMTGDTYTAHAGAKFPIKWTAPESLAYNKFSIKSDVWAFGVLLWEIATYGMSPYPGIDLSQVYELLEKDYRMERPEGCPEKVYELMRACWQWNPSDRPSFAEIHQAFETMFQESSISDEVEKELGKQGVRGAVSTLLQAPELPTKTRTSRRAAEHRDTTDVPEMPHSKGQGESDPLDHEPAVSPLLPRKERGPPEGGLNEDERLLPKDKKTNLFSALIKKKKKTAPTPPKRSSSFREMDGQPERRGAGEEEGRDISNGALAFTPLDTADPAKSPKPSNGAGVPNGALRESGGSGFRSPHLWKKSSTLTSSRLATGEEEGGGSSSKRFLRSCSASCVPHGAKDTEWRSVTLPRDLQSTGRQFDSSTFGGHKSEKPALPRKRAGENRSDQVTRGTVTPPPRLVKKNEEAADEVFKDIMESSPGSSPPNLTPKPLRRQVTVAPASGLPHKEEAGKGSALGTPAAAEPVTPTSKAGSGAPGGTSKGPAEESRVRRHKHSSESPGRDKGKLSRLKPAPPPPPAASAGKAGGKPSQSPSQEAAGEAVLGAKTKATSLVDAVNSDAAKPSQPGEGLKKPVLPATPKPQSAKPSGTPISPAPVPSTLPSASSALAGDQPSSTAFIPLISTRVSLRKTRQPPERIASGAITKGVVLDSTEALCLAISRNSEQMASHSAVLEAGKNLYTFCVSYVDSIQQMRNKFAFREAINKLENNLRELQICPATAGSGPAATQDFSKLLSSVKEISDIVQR
Sequence of Ras and Rab interactor 1/Tyrosine-protein kinase ABL1 (Q13671 whole entry): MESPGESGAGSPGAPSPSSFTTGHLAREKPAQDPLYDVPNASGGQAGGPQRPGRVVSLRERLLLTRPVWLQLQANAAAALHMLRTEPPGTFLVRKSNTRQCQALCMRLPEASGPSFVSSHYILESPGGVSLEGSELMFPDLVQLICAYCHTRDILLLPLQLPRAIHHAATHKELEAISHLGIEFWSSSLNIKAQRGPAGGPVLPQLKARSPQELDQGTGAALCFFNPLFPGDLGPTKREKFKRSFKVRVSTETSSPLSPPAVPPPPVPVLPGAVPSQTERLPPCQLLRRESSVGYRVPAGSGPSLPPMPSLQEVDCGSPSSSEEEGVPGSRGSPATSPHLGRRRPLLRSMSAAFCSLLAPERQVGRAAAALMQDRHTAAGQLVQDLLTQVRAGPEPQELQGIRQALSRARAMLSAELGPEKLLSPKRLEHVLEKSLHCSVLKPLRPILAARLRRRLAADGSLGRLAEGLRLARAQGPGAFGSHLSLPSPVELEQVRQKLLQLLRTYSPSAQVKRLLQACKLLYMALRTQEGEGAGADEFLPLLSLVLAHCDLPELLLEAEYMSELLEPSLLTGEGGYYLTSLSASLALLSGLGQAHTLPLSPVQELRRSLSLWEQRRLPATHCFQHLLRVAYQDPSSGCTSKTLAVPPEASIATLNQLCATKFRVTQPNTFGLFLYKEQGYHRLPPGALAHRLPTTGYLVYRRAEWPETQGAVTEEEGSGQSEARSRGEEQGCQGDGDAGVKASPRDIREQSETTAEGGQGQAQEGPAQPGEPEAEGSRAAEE
Sequence of SUMO-activating enzyme (Q9UBE0 whole entry): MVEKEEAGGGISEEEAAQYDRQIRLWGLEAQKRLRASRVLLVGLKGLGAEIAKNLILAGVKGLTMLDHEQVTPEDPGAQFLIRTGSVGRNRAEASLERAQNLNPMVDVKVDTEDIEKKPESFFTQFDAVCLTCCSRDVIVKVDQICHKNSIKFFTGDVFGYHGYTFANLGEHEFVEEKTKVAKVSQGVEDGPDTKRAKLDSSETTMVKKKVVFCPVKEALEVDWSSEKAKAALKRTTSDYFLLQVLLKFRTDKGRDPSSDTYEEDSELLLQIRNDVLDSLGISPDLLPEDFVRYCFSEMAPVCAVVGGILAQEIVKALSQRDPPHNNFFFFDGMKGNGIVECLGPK
Sequence of SUMO-activating enzyme (Q9UBT2 whole entry): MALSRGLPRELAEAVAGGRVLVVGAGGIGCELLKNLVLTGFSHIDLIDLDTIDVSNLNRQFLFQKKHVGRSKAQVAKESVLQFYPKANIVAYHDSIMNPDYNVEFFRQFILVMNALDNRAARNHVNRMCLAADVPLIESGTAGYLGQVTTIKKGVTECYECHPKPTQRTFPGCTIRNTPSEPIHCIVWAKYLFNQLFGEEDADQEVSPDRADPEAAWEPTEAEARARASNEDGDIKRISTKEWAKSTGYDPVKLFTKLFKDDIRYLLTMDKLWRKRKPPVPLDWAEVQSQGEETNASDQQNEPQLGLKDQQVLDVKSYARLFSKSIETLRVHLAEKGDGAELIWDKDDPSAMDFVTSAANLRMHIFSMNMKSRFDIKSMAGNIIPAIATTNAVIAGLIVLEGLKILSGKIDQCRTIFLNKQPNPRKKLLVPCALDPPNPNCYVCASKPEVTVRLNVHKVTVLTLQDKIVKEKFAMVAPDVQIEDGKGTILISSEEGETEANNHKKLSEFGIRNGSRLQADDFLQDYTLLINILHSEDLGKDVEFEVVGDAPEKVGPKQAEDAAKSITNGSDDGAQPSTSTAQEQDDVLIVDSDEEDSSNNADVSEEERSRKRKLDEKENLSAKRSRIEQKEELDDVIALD
Sequence of Nonstructural protein 1 (Q194T2 whole entry): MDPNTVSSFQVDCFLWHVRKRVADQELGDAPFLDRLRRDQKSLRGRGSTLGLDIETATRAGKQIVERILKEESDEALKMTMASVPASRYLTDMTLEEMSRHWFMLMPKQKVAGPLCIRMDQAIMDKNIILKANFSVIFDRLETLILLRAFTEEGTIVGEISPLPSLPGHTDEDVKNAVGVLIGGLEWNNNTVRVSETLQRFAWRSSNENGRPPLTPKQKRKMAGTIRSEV

With `C[N+](C)(C)CCCNC(=O)c1ccc(C=NO)nc1` the IC50 [1] was 2.7 µM (active) and the IC50 [2] was 4.16 µM (active).
With `COc1ccc(-c2nnc(SCC(=O)Nc3cc(C)on3)[nH]2)cc1` the IC50 (SUMO-activating enzyme) was > 100 µM (inactive).
In the case of `CC12CCC(C(=O)Nc3nc4ccc(Br)cc4s3)(OC1=O)C2(C)C` (configuration not stated), the AC50 [3] is reported as 1.36 µM (active).
In the case of `COc1ccc(C(N)=NOC(=O)Cc2cccs2)cc1`, the IC50 (Caspase-3) is reported as 32 µM (active), the IC50 [4] is reported as 11.3 µM (active) and the IC50 [5] is reported as 37.2 µM (active). The IC50 [6] was 6.43 µM (active).
For `Cc1cc(C)c2nc(-c3ccccn3)cc(C(=O)NCc3ccco3)c2c1`, the IC50 (Estrogen receptor) was > 50 µM (not active) and the CC50 (Vero [7]) was > 40 µM (active).
With `Cc1nn(-c2cccc(Cl)c2)c2nc(-c3ccco3)cc(C(=O)O)c12` the CC50 (Vero [7]) was > 40 µM (active) and the IC50 (Genome polyprotein) was > 100 µM (active).
For `COc1ccc(C(=O)COC(=O)c2n[nH]c3ccccc23)c(OC)c1`, the IC50 (Caspase-3) was 33 µM (active), the IC50 [4] was 8.72 µM (active) and the IC50 [5] was 29.9 µM (active). For the same molecule, the IC50 [6] was 40.3 µM (active).
For `COc1cc2c(C(=O)N3CCN(c4cccc(Cl)c4)CC3)cn(C)c(=O)c2cc1OC`, the IC50 [8] was 20.5 µM (inactive).
In the case of `CCSc1nsc(NC(=O)Nc2ccc(F)cc2F)n1`, the CC50 [9] is reported as 28.3 µM (active), the CC50 [10] is reported as > 20 µM (active) and the IC50 (Caspase-3) is reported as 39.5 µM (active). For the same molecule, the IC50 [4] was 13.7 µM (active), the IC50 [5] was > 100 µM (inactive) and the IC50 [6] was > 100 µM (inactive).
With `COc1ccc([N+](=O)[O-])cc1CSc1ccccn1` the IC50 [1] was 8.44 µM (active) and the IC50 [2] was 7.41 µM (active).
In the case of `CCCc1n(CC(O)COC2CCCCC2)c2ccccc2[n+]1CC` (configuration not stated), the IC50 [1] is reported as 3.26 µM (active) and the IC50 [2] is reported as 3.93 µM (active).
For `O=[N+]([O-])c1cc2no[n+]([O-])c2cc1N1CCCCC1`, the IC50 (Nonstructural protein 1) was 31.7 µM (active), the AC50 [11] was 1.62 µM (active) and the CC50 (Vero [7]) was 27.6 µM (active). For the same molecule, the CC50 (Vero [12]) was 24.7 µM (active), the IC50 (Genome polyprotein) was 6.38 µM (active) and the IC50 (Protein Tat) was > 100 µM (active). For the same molecule, the CC50 [13] was 36.9 µM (active).
In the case of `COc1cc(/C=C2\Oc3cc(O)ccc3C2=O)ccc1O`, the AC50 [3] is reported as 0.641 µM (active) and the IC50 [14] is reported as 26 µM (active).
In the case of `COc1ccc(/C=C/C(=O)O)cc1` [4-METHOXYCINNAMIC ACID], the AC50 [3] is reported as 21 µM (active).
